Reference: ChEMBL document CHEMBL3739373, “1,2,3-Triazole derivatives as antitubercular agents: synthesis, biological evaluation and molecular docking study” (Medchemcomm, 2015)
Converted amounts (≈) assume the structure as drawn.

Experiments:
[1] = system: Mycobacterium tuberculosis; assay: Antitubercular activity against dormant phase Mycobacterium tuberculosis H37Ra ATCC 25177 incubated for 12 days by XTT reduction menadione assay; type: functional, organism-based; settings: 288 h
[2] = Antioxidant activity assessed as DPPH radical scavenging activity after 30 mins by spectrophotometric analysis; type: physicochemical
[3] = Cytotoxicity against human THP1 cells assessed as growth inhibition after 48 hrs by MTT assay; type: cell-based, THP-1; settings: for GI50 at 48 h: THP1 cells; for GI90: thp-1, 48 h
[4] = (§1) Cytotoxicity against human A549 cells assessed as growth inhibition after 48 hrs by MTT assay; type: cell-based; settings: A549 cells
A549 = assay: as §1; type: cell-based; settings: a549, 48 h
[5] = Cytotoxicity against human PANC1 cells assessed as growth inhibition after 48 hrs by MTT assay; type: cell-based, PANC-1; settings: for GI50 at 48 h: PANC1 cells; for GI90: panc-1, 48 h
[6] = Selectivity index, ratio of GI50 for human THP1 cells to MIC for dormant phase Mycobacterium tuberculosis H37Ra ATCC 25177; type: toxicity, cell-based, THP-1; settings: read-out: Selectivity Index
[7] = Selectivity index, ratio of GI50 for human A549 cells to MIC for dormant phase Mycobacterium tuberculosis H37Ra ATCC 25177; type: toxicity, cell-based; settings: read-out: Selectivity Index
[8] = Selectivity index, ratio of GI50 for human PANC1 cells to MIC for dormant phase Mycobacterium tuberculosis H37Ra ATCC 25177; type: toxicity, cell-based, PANC-1; settings: read-out: Selectivity Index

Row | SMILES | IC50 [1] [µg/mL] | MIC [1] [µg/mL] | IC50 [2] [µg/mL] | GI50 at 48 h [3] [µg/mL] | GI90 [3] [µg/mL] | GI50 at 48 h [4] [µg/mL] | GI90 (A549) [µg/mL] | GI50 at 48 h [5] [µg/mL] | GI90 [5] [µg/mL] | selectivity ratio [6] | selectivity ratio [7] | selectivity ratio [8]
1 | Clc1ccc(OCc2cn(Cc3ccc(Br)cc3)nn2)cc1 | 0.5 (≈ 1.32 µM) | 5.8 (≈ 15.3 µM) | 11 (≈ 29.1 µM) | 52.9 (≈ 140 µM) | > 100 | > 100 | > 100 | > 100 | > 100 | 9.2 | > 17.3 | > 17.3
2 | Brc1ccc(Cn2cc(COc3ccccc3)nn2)cc1 | 3.2 (≈ 9.3 µM) | 28.9 (≈ 84 µM) | 18.3 (≈ 53.2 µM) | 16.2 (≈ 47.1 µM) | 68.3 (≈ 198 µM) | > 100 | > 100 | > 100 | > 100 | 0.6 | > 3.5 | > 3.5
3 | Clc1cccc(Cn2cc(COc3ccccc3)nn2)c1 | 2.4 (≈ 8.01 µM) | 27.7 (≈ 92.4 µM) | 27.3 (≈ 91.1 µM) | 14.6 (≈ 48.7 µM) | 54.3 (≈ 181 µM) | > 100 | > 100 | > 100 | > 100 | 0.5 | > 3.6 | > 3.6
4 | Clc1cc(Cl)c(OCc2cn(Cc3ccc(Br)cc3)nn2)c(Cl)c1 | 0.9 (≈ 2.01 µM) | 27.8 (≈ 62.1 µM) | 14 (≈ 31.3 µM) | 58.7 (≈ 131 µM) | > 100 | > 100 | > 100 | > 100 | > 100 | 2.1 | > 3.6 | > 3.6
5 | O=[N+]([O-])c1ccc(Cn2cc(COc3ccccc3)nn2)cc1 | 1.7 (≈ 5.48 µM) | 28 (≈ 90.2 µM) | 10.1 (≈ 32.5 µM) | 62.9 (≈ 203 µM) | > 100 | > 100 | > 100 | > 100 | > 100 | 2.2 | > 3.6 | > 3.6
6 | CC(=O)O[C@H]1C(=O)[C@@]2(C)[C@H]([C@H](OC(=O)c3ccccc3)[C@]3(O)C[C@H](OC(=O)[C@H](O)[C@@H](NC(=O)c4ccccc4)c4ccccc4)C(C)=C1C3(C)C)[C@]1(OC(C)=O)CO[C@@H]1C[C@@H]2O [PACLITAXEL] | – | – | – | 0.14 (≈ 0.164 µM) | 5.82 (≈ 6.82 µM) | 0.13 (≈ 0.152 µM) | 5.72 (≈ 6.7 µM) | 0.004 (≈ 0.00468 µM) | 0.07 (≈ 0.082 µM) | > 2330 | > 2330 | > 2330
7 | Cc1cc(OCc2cn(Cc3ccc([N+](=O)[O-])cc3)nn2)ccc1Cl | 0.8 (≈ 2.23 µM) | 28.2 (≈ 78.6 µM) | 13.4 (≈ 37.3 µM) | 27.9 (≈ 77.8 µM) | 84.3 (≈ 235 µM) | > 100 | > 100 | > 100 | > 100 | 1 | > 3.6 | > 3.6
8 | Cc1cc(OCc2cn(Cc3cccc([N+](=O)[O-])c3)nn2)ccc1Cl | 2.2 (≈ 6.13 µM) | > 30 | 15.6 (≈ 43.5 µM) | – | – | – | – | – | – | – | – | –
9 | Clc1ccc(Cn2cc(COc3ccc(Cl)cc3)nn2)cc1 | 0.7 (≈ 2.09 µM) | 8.2 (≈ 24.5 µM) | 26.1 (≈ 78.1 µM) | 17.4 (≈ 52.1 µM) | 89.7 (≈ 268 µM) | > 100 | > 100 | > 100 | > 100 | 2.1 | > 12.2 | > 12.2
10 | CO[C@H]1/C=C/O[C@@]2(C)Oc3c(C)c(O)c4c(O)c(c(/C=N/N5CCN(C)CC5)c(O)c4c3C2=O)NC(=O)/C(C)=C\C=C\[C@H](C)[C@H](O)[C@@H](C)[C@@H](O)[C@@H](C)[C@H](OC(C)=O)[C@@H]1C [RIFAMPIN] | 0.002 (≈ 0.00243 µM) | 0.04 (≈ 0.0486 µM) | – | – | – | – | – | – | – | – | – | –
11 | O=[N+]([O-])c1ccc(Cn2cc(COc3c(Cl)cc(Cl)cc3Cl)nn2)cc1 | 2.2 (≈ 5.32 µM) | > 30 | 28.9 (≈ 69.9 µM) | – | – | – | – | – | – | – | – | –
12 | Cc1ccc(OCc2cn(Cc3cccc([N+](=O)[O-])c3)nn2)cc1 | 2.4 (≈ 7.4 µM) | > 30 | 12.1 (≈ 37.3 µM) | – | – | – | – | – | – | – | – | –
13 | O=[N+]([O-])c1cccc(OCc2cn(Cc3ccc(Cl)cc3)nn2)c1 | 53.4 (≈ 155 µM) | > 100 | 37.3 (≈ 108 µM) | – | – | – | – | – | – | – | – | –
14 | O=[N+]([O-])c1cccc(Cn2cc(COc3cccc([N+](=O)[O-])c3)nn2)c1 | 8.3 (≈ 23.4 µM) | > 30 | 19.1 (≈ 53.8 µM) | – | – | – | – | – | – | – | – | –
15 | O=[N+]([O-])c1cccc(Cn2cc(COc3c(Cl)cc(Cl)cc3Cl)nn2)c1 | 2.6 (≈ 6.29 µM) | > 30 | 29.2 (≈ 70.6 µM) | – | – | – | – | – | – | – | – | –
16 | Cc1cc(OCc2cn(Cc3ccc(Br)cc3)nn2)ccc1Cl | 2.4 (≈ 6.11 µM) | > 30 | 16.5 (≈ 42 µM) | – | – | – | – | – | – | – | – | –
17 | O=[N+]([O-])c1cccc(OCc2cn(Cc3cccc(Cl)c3)nn2)c1 | 26.6 (≈ 77.2 µM) | > 100 | 31.2 (≈ 90.5 µM) | – | – | – | – | – | – | – | – | –
